Test results published in ChEMBL document CHEMBL3352611, “Deconstruction of 6,7-dimethoxy-1,2,3,4-tetrahydroisoquinoline moiety to separate P-glycoprotein (P-gp) activity from σ2 receptor affinity in mixed P-gp/σ2 receptor agents” (Eur J Med Chem, 2015).

Tests used:
[1] = Displacement of [3H]-DTG from sigma2 receptor in rat liver membranes in presence of […] (+)-pentazocine by radioligand binding assay; assay type: cell membranes, Membrane
[2] = Selectivity index, ratio of Ki for sigma1 recetor in guinea-pig brain membranes to Ki for sigma2 receptor in rat liver membranes; assay type: cell membranes
[3] = target: ATP-dependent translocase ABCB1 (Homo sapiens, UniProt P08183); test: Activity at MDR1 (unknown origin) expressed in MDCK-MDR1 cells by Calcein-AM assay; assay type: cell-based
Sequence of ATP-dependent translocase ABCB1 (P08183 whole entry): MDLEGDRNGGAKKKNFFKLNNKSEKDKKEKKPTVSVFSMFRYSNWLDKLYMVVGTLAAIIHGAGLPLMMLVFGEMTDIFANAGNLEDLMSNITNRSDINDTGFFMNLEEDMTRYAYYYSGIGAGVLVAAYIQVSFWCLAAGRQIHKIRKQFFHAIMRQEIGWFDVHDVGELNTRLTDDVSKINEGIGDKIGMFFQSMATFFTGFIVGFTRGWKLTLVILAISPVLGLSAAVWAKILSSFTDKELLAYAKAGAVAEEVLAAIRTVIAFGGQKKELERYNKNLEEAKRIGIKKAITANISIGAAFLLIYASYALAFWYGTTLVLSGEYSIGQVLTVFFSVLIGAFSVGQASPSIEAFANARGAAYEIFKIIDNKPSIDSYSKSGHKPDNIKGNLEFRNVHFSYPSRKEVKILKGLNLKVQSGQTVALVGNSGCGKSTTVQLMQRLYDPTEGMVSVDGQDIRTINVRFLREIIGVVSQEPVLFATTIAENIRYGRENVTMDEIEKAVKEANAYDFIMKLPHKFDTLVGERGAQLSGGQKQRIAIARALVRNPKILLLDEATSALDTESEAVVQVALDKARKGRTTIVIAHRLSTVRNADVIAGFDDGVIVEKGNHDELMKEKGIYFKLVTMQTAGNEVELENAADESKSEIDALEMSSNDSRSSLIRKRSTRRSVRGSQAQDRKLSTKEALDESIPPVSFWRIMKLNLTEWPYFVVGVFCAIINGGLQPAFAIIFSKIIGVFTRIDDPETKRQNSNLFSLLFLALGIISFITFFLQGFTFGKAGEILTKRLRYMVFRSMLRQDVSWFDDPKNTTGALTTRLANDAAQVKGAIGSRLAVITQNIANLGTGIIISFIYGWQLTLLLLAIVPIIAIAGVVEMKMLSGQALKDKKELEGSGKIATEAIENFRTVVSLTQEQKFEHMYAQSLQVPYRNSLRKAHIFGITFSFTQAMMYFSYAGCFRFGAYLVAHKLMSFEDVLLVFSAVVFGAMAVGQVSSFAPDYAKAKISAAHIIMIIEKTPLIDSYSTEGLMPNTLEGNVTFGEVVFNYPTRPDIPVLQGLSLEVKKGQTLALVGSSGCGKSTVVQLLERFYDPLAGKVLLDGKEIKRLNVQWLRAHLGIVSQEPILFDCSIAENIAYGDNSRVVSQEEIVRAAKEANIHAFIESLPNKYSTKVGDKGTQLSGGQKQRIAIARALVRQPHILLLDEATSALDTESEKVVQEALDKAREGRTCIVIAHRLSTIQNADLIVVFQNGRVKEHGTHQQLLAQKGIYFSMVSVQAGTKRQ

[4] = target: Sigma non-opioid intracellular receptor 1 (Cavia porcellus, UniProt Q60492); test: Displacement of (+)-[3H]-pentazocine from sigma1 recetor in guinea-pig brain membranes without cerebellum by radioligand binding assay; assay type: cell membranes, Membrane
Sequence of Sigma non-opioid intracellular receptor 1 (Q60492 whole entry): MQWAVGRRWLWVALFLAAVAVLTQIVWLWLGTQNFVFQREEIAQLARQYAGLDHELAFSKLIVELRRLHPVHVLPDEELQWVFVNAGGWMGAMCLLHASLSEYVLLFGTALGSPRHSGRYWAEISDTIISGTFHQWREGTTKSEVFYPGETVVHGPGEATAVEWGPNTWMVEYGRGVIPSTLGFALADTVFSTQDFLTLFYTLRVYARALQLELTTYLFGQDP

[5] = target: Sigma non-opioid intracellular receptor 1 (Cavia porcellus) (UniProt Q60492); conditions: Brain, Membrane, 10 pM
Sequence of Sigma non-opioid intracellular receptor 1 (Cavia porcellus) (Q60492 whole entry): as above

Ki [1] | Ratio Ki [2] | EC50 [3] | Ki [4] | inhibition [5] | Compound
5.34 nM | 260 | 210 nM | – | – | COc1cc2c(cc1OC)CN(CCCCc1cn(-c3ccc(F)cc3)c3ccccc13)CC2
152 nM | 0.8 | 1340 nM | 122 nM | – | COc1ccc2c(c1OC)CC[C@@H]2NCCCCc1cn(-c2ccc(F)cc2)c2ccccc12
231 nM | 0.56 | 7660 nM | 129 nM | – | COc1ccc(CNCCCCc2cn(-c3ccc(F)cc3)c3ccccc23)cc1
35.2 nM | 3.58 | 1740 nM | 126 nM | – | CCN(CCCCc1cn(-c2ccc(F)cc2)c2ccccc12)[C@@H]1CCc2c1ccc(OC)c2OC
69.8 nM | – | 4680 nM | – | – | CCN(CCCCc1cn(-c2ccc(F)cc2)c2ccccc12)Cc1ccc(OC)cc1
19 nM | 2.67 | 700 nM | 50.8 nM | – | CCN(CCCCc1cn(-c2ccc(F)cc2)c2ccccc12)[C@H]1CCc2c1ccc(OC)c2OC
227 nM | 2.4 | 2950 nM | 544 nM | – | COc1cccc(CNCCCCc2cn(-c3ccc(F)cc3)c3ccccc23)c1
27.6 nM | 2.14 | 960 nM | 59.2 nM | – | CCN(CCCCc1cn(-c2ccc(F)cc2)c2ccccc12)C1CCc2c1ccc(OC)c2OC (racemic)
97.1 nM | 0.19 | 1790 nM | 18.9 nM | 85% | CCN(CCCCc1cn(-c2ccc(F)cc2)c2ccccc12)Cc1ccc(OC)c(OC)c1
346 nM | 0.97 | 1350 nM | 337 nM | – | COc1ccc(CCN(C)CCCCc2cn(-c3ccc(F)cc3)c3ccccc23)cc1OC
– | – | 820 nM | – | – | COc1cc2c(cc1OC)CN(CC/C=C1\CCCc3c(OC)cccc31)CC2
91 nM | 0.03 | 4580 nM | 2.44 nM | – | CCN(CCCCc1cn(-c2ccc(F)cc2)c2ccccc12)Cc1cccc(OC)c1
580 nM | 0.26 | 7200 nM | 151 nM | – | COc1cccc(CCNCCCCc2cn(-c3ccc(F)cc3)c3ccccc23)c1
1400 nM | 0.3 | 2850 nM | 431 nM | – | COc1ccc(CCNCCCCc2cn(-c3ccc(F)cc3)c3ccccc23)cc1
252 nM | 0.69 | 3450 nM | 175 nM | – | COc1ccc2c(c1OC)CC[C@H]2NCCCCc1cn(-c2ccc(F)cc2)c2ccccc12
115 nM | 1.87 | 870 nM | 215 nM | – | COc1ccc2c(c1OC)CCC2NCCCCc1cn(-c2ccc(F)cc2)c2ccccc12 (racemic)
2100 nM | 0.45 | 1120 nM | 939 nM | – | COc1ccc(CCNCCCCc2cn(-c3ccc(F)cc3)c3ccccc23)cc1OC
169 nM | 16 | 1040 nM | 2700 nM | – | COc1ccc(CNCCCCc2cn(-c3ccc(F)cc3)c3ccccc23)cc1OC
111 nM | 0.16 | 6570 nM | 17.5 nM | – | COc1cccc(CCN(C)CCCCc2cn(-c3ccc(F)cc3)c3ccccc23)c1
334 nM | 0.2 | 4490 nM | 67.4 nM | – | COc1ccc(CCN(C)CCCCc2cn(-c3ccc(F)cc3)c3ccccc23)cc1
